From US5175283A, “Azetidin-2-one derivatives as serine protease inhibitors” (Bristol-Myers Squibb Company, priority 1992, dated 1992)
Values joined by “and” are separate entries in the source; they are usually repeats but may differ in a detail not shown here. Identical values can stand only once. Counter-ions that a name gives are not always drawn.

Legend:
human α-thrombin [1] = molecular target: T1, human α-thrombin (Homo sapiens, UniProt P00734); assay: Enzyme assay for the inhibition of thrombin (s-2238 substrate); type: biochemical; design: key to Thrombin k2 /ki (second order rate constant), cells with symbol *: *: not measurable; details: for Thrombin k2 /ki (second order rate constant for inactivation of the enzyme) / Thrombin k2 /ki (second order rate constant), cells with symbol *: human α-thrombin; for Thrombin k2 /ki (second order rate constant for inactivation of the enzyme): s-2238, pH 7.4, room temperature; for IC50: 3 min incubation of drug with enzyme, room temperature; for Thrombin k2 /ki (second order rate constant), cells with symbol *: * = not measurable
T1 construct: purified human α-thrombin dissolved in thrombin assay buffer
Experimental: 1. Enzyme Assays for the Inhibition of Thrombin The following reagents were used in these assays: Thrombin assay buffer: 145 mM NaCl, 5 mM KCl, 30 mM N-2-hydroxyethyl piperazine-N'-2-ethanesulfonic acid, pH 7.4, 1 mg/ml polyethylene glycol (PEG-8000). 3 mM D-Phe-Pip-Arg-p-nitroanilide (s-2238) in H2 O. 3 U/ml purified human α-thrombin dissolved in thrombin assay buffer. Inhibitors to be tested were dissolved in H2 O, methanol, or DMSO just prior to use. Assay Procedure To each well in a 96-well microtiter plate, 270 μl of assay buffer was added. Human α-thrombin (10 μl of 3 U/ml) was added, then 10 μl of inhibitor were added and mixed. The samples were incubated at room temperature for a defined period of time (3 min for initial IC50 determinations). The enzymic reaction was started with 10 μl of 3 mM s-2238 substrate and continued at room temperature. The change in optical density was measured at 405 nm. A kinetic microplate reader (Molecular Devices Corporation Vmax) was used to measure the change in optical density over time. Results are reported in Table 1 as IC50 values, i.e., the drug concentration in mole/liter which caused 50% inhibition of the enzyme activity (after incubation of the drug with the enzyme for 3 min). Alternatively, results are also reported in Table 1 expressed as k2 /ki which is the second order rate constant in per mole per minute for inactivation time of the enzyme [Kitz, et al., J. Biol. Chem., 237, 3245 (1962)].

human α-thrombin [2] = molecular target: T1, human α-thrombin; assay: Concentration required for doubling thrombin clotting time in human plasma; type: biochemical; details: human citrated plasma, 10 U/ml human thrombin; read-out: ED50, drug concentration required to double clotting time
Experimental: Procedure for Determining the Concentration Required for Doubling Thrombin Clotting Time--Clotting Time Assays The following reagents were used in these assays: Owren's Veronal Buffer: 125 mM NaCl, 28.4 mM sodium barbital, pH 7.35. Human citrated plasma obtained from human volunteers or citrated plasma obtained from IP-dosed animals (prepared as described below). 10 NIH Units/ml human α-thrombin in thrombin buffer for use with human plasma. […] The blood was centrifuged at […] (480×g) for 15 min at room temperature (using a Sorvall RT 6000B centrifuge). The plasma was removed, pooled, and aliquoted into small tubes which were stored frozen for later use. Clotting Time Measurement Clotting times were determined by pipetting 0.1 ml of Owren's buffer (pre-warmed 37° C.) and 0.1 ml of human or rat plasma into yellow sample cuvettes. For studies with human plasma 10 U/ml human thrombin (10 ml) was placed in the reservoir assembly station of the MLA 700. (Medical Laboratory Automation, Electra 700 Reservoir Assembly). For rat studies, the human thrombin concentration was 25 U/ml. The cuvettes were vortexed and then placed on the MLA 700 sample wheel. The coagulation timer (MLA 700) automatically dispenses 0.1 ml human thrombin into the sample in each cuvette. Detection of the fibrin clot was determined optically by the MLA 700. Studies were performed to determine the concentration of drug which caused a doubling of the clotting time in human plasma. From standard curves of thrombin activity added to the sample versus the clotting time, the concentration of drug which caused a doubling of the thrombin clotting time corresponded to inhibition of approximately 1/2 of the added thrombin clotting activity. Results are reported in Table 1 as ED50 values, i.e., the drug concentration required to double clotting time.

[3] = system: Thrombin Induced Clotting Time; assay: Thrombin induced clotting time ex vivo in plasma of i.p. dosed rats; details: rat, 50 mg/kg i.p.
Experimental: Procedure for Determining the Concentration Required for Doubling Thrombin Clotting Time--Clotting Time Assays
(§1) The following reagents were used in these assays:
Owren's Veronal Buffer: 125 mM NaCl, 28.4 mM sodium barbital, pH 7.35.
Human citrated plasma obtained from human volunteers or citrated plasma obtained from IP-dosed animals (prepared as described below).
25 NIH Units/ml human α-thrombin in thrombin buffer for use with rat plasma.
Test compound was prepared just prior to dosing. Routinely the drugs are dissolved in water. Animals were dosed by i.p. injection.
After the appropriate time period, the animals were ether-anesthetized, and blood was drawn by cardiac puncture using 333 μl of 3.8% sodium citrate per 3 ml blood. After all of the samples were obtained, the tubes were centrifuged at 1,500 rpm for 15 min as described for the human blood samples.
Clotting Time Measurement
Clotting times were determined by pipetting 0.1 ml of Owren's buffer (pre-warmed 37° C.) and 0.1 ml of human or rat plasma into yellow sample cuvettes. For studies with human plasma 10 U/ml human thrombin (10 ml) was placed in the reservoir assembly station of the MLA 700. (Medical Laboratory Automation, Electra 700 Reservoir Assembly). For rat studies, the human thrombin concentration was 25 U/ml. The cuvettes were vortexed and then placed on the MLA 700 sample wheel. The coagulation timer (MLA 700) automatically dispenses 0.1 ml human thrombin into the sample in each cuvette. Detection of the fibrin clot was determined optically by the MLA 700.
In separate studies, two compounds, Compound XIX and Compound XI, were dosed 50 mg/kg I.P. to three rats in each study group. […] "Term" indicates "terminated sample" where a clot was unable to form after approximately 99 seconds. When this occurred, the animal plasma was diluted 1: 1 with control rat plasma and the sample tested again. If need, the animal plasma was diluted 1:4 and tested again.

[4] = molecular target: T2, bovine pancreatic trypsin (Bos taurus, UniProt P00760); assay: Enzyme assay for the inhibition of trypsin (Z-Val-Gly-Arg-pNA substrate); type: biochemical; details: 3 min incubation of drug with enzyme, room temperature, pH 8.0; read-out: Trypsin IC50
T2 construct: purified bovine pancreatic trypsin dissolved in trypsin assay buffer
T2 sequence (P00760 24-246): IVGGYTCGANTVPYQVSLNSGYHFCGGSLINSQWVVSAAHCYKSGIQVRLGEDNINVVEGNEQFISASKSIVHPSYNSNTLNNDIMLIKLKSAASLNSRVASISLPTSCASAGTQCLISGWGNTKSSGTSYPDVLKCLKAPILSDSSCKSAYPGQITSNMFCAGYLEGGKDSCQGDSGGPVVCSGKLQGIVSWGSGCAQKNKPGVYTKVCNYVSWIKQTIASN
Experimental: 2. Enzyme Assays for the Inhibition of Trypsin
as §1
Trypsin assay buffer: 2 mM CaCl2, 50 mM Tris/Cl pH 8.0.
3 mM Z-Val-Gly-Arg-pNA (Chromzyme TRy) dissolved in H2 O.
6 μg/ml of purified bovine pancreatic trypsin dissolved in trypsin assay buffer.
Inhibitors to be tested were dissolved in H2 O, methanol or DMSO just prior to use.
To each well in a 96-well microtiter plate, 270 μl of assay buffer was added. Bovine trypsin (10 μl of 6 μg/ml) was added. Inhibitor (10 μl ) was added, mixed, and then incubated at room temperature for 3 min. The enzymic reaction was started with 10 μl of 3 mM Z-Val-Gly-Arg-pNA substrate. The change in optical density was measured at 405 nm at room temperature. A kinetic microplate reader (Molecular Devices Corporation Vmax) was used to measure the change in optical density over time.
Results are reported in Table 1 as IC50 values, i.e., the drug concentration in mole/liter which caused 50% inhibition of the enzyme activity (after incubation of the drug with the enzyme for 3 min).

[5] = 0.5 hr. post dose, undiluted plasma, per animal

SMILES: CCS(=O)(=O)[C@H]1[C@H](CCCNC(=N)N)C(=O)N1C(C)=O (relative stereo) [Compound X, trans-4-Ethylsulfonyl-3-quanidinopropyl-1-acetyl-2-azetidinone hydrochloride salt]
- Thrombin k2 /ki (second order rate constant for inactivation of the enzyme) (human α-thrombin [1]): 3.0 × 10^6 m^-1 min^-1

SMILES: CC(=O)N1C(=O)[C@@H](CCCNC(=N)N)[C@@H]1C(=O)NCC(=O)O (relative stereo) [Compound XIX, 4-[[(2-Hydroxy-2-oxoethyl)amino]carbonyl]-3-(3-guanidinopropyl)-1-acetyl-2-azetidinone hydrochloride salt]
- IC50 (human α-thrombin [1]): 12 nM
- Thrombin k2 /ki (second order rate constant for inactivation of the enzyme) (human α-thrombin [1]): 2.0 × 10^7 m^-1 min^-1
- IC (2-fold clotting time) (human α-thrombin [2]): 0.43 µM
- Thrombin Induced Clotting Time (1:1 Control Plasma) ([3]; 0.5 hr. post dose, plasma diluted 1:1 with control rat plasma, hydrochloride salt, 50 mg/kg, in s): 14.4 and 17.3
- Thrombin Induced Clotting Time [3, 5]: 45.2 s
- Thrombin Induced Clotting Time, terminated samples [3, 5]: term. ("terminated sample" where a clot was unable to form after approximately 99 seconds)
- Thrombin Induced Clotting Time ([3]; 2 hr. post dose, undiluted plasma, per animal, hydrochloride salt, 50 mg/kg): 12.9 s and 13.3 s and 14.4 s
- Thrombin Induced Clotting Time ([3]; 5 hr. post dose, undiluted plasma, per animal, hydrochloride salt, 50 mg/kg): 13.5 s and 13.6 s and 13.3 s
- Clotting time ex vivo, result in words ([3]; three rats per group): prolonged clotting time

SMILES: COC(=O)[C@H]1[C@H](CCCNC(=N)N)C(=O)N1S(=O)(=O)c1ccc(C)cc1.Cl (relative stereo) [I, trans-4-Methoxycarbonyl-3-(3-guanidinopropyl)-1-p-toluenesulfonyl-2-azetidinone hydrochloride salt]
- IC50 (human α-thrombin [1]): 2 to 9 nM
- Thrombin k2 /ki (second order rate constant for inactivation of the enzyme) (human α-thrombin [1]): 1.2 × 10^8 m^-1 min^-1
- IC50 [4]: 8 nM
- IC (2-fold clotting time) (human α-thrombin [2]): 65 µM

SMILES: COC(=O)[C@H]1[C@H](CCCNC(=N)N)C(=O)N1C(C)=O (relative stereo) [II, trans-4-Methoxycarbonyl-3-[3-quanidinopropyl)-1-acetyl-2-azetidinone hydrochloride salt]
- IC50 (human α-thrombin [1]): 2 nM
- Thrombin k2 /ki (second order rate constant for inactivation of the enzyme) (human α-thrombin [1]): 1.9 × 10^7 m^-1 min^-1
- IC50 [4]: 40 nM
- IC (2-fold clotting time) (human α-thrombin [2]): 1.25 µM

SMILES: COC(=O)[C@H]1[C@H](CCCNC(=N)N)C(=O)N1S(C)(=O)=O.Cl (relative stereo) [IV, trans-4-Methoxycarbonyl-3-(guanidinopropyl)-1-methylsulfonyl-2-azetidinone hydrochloride salt]
- IC50 (human α-thrombin [1]): 20 nM
- Thrombin k2 /ki (second order rate constant for inactivation of the enzyme) (human α-thrombin [1]): 1.5 × 10^6 m^-1 min^-1
- IC50 [4]: 70 nM

SMILES: COC(=O)[C@H]1[C@H](CCCCNC(=N)N)C(=O)N1S(=O)(=O)c1cccc2c(N(C)C)cccc12 (relative stereo) [XVII, trans-4-Methoxycarbonyl-3-(4-guanidinobutyl)-1-[(5-dimethylamino)-1-naphthalenesulfonyl]-2-azetidinone hydrochloride salt]
- Thrombin k2 /ki (second order rate constant for inactivation of the enzyme) (human α-thrombin [1]): 3.7 × 10^5 m^-1 min^-1
- IC (2-fold clotting time) (human α-thrombin [2]): 50 µM

SMILES: CC(=O)N1C(=O)[C@H](CCCNC(=N)N)[C@@H]1C(=O)N1CCCCC1 (relative stereo) [XXIII, cis-4-(1-Piperidinocarbonyl)-3-guanidinopropyl-1-acetyl-2-azetidinone hydrochloride salt]
- Thrombin k2 /ki (second order rate constant for inactivation of the enzyme) (human α-thrombin [1]): 4.3 × 10^4 m^-1 min^-1
- IC (2-fold clotting time) (human α-thrombin [2]): 20 µM

SMILES: CN(C)c1cccc2c(S(=O)(=O)N3CC(CCCNC(=N)N)C3=O)cccc12 (stereo not drawn) [IX, 3-Guanidinopropyl-1-[(5-dimethylamino)-1-naphthanesulfonyl)]-2-azetidinone hydrochloride salt]
- IC50 (human α-thrombin [1]): 1000 nM
- Thrombin k2 /ki (second order rate constant), cells with symbol * (human α-thrombin [1]): *
- IC (2-fold clotting time) (human α-thrombin [2]): 30 µM

SMILES: CC(=O)N1CC(CCCNC(=N)N)C1=O (stereo not drawn) [VIII, 3-Guanidinopropyl-1-acetyl-2-azetidinone hydrochloride salt]
- IC50 (human α-thrombin [1]): 100 nM

SMILES: CC(=O)N1C(=O)C(CCCNC(=N)N)C1C(=O)N1CCC[C@H]1C(=O)O (stereo partly drawn) [XVIII, trans-4-[(2-Carboxy-1-pyrrolidinyl)carbonyl]-3-(3-guanidino)-procyl-1-acetyl-2-azetidinone hydrochloride salt]
- IC50 (human α-thrombin [1]): 49 nM
- Thrombin k2 /ki (second order rate constant for inactivation of the enzyme) (human α-thrombin [1]): 4.3 × 10^6 m^-1 min^-1
- IC (2-fold clotting time) (human α-thrombin [2]): 1.25 µM

SMILES: CC(=O)OC1C(CCCNC(=N)N)C(=O)N1C(=O)C(C)(C)C (stereo not drawn) [XXI, 4-Acetyloxy-3-guanidinopropyl-1-t-butylcarbonyl-2-azetidinone hydrochloride salt]
- IC50 (human α-thrombin [1]): 74 nM

SMILES: CC(=O)OC1C(CCCNC(=N)N)C(=O)N1C(=O)c1ccccc1 (stereo not drawn) [XXII, 4-Acetyloxy-3-guanidinooropyl-1-phenylcarbonyl-2-azetidinone hydrochloride salt]
- IC50 (human α-thrombin [1]): 35 nM
- Thrombin k2 /ki (second order rate constant), cells with symbol * (human α-thrombin [1]): *
- IC (2-fold clotting time) (human α-thrombin [2]): 10.0 µM
